Results from patent publication US20050070510A1, “Substituted tetracycline compounds as synergistic antifungal agents” (Paratek Pharmaceuticals, Inc., priority 2001, published 2005).

test system: COS-1 cells; experiment: In vitro mammalian cytotoxicity assay (Resazurin)

SMILES | In Vitro Cytotoxicity
CCN(CC)c1ccc(-c2csc(Nc3ccc4c(c3O)C(=O)C3=C(O)[C@]5(C#N)C(=O)C(C(N)=O)=C(O)[C@@H](N(C)C)[C@]5(N)[C@@H](O)[C@]3(N)[C@H]4O)n2)cc1 [DU] | ** (toxicities less than 25 μg/mL are represented by **)
CN(C)[C@@H]1C(O)=C(C(N)=O)C(=O)[C@@]2(C#N)C(O)=C3C(=O)c4c(ccc(Nc5nc(-c6cccc([N+](=O)O)c6)cs5)c4O)[C@H](O)[C@@]3(N)[C@H](O)[C@@]12N [DV] | ** (toxicities less than 25 μg/mL are represented by **)
Cc1sc(Nc2ccc3c(c2O)C(=O)C2=C(O)[C@]4(C#N)C(=O)C(C(N)=O)=C(O)[C@@H](N(C)C)[C@]4(N)[C@@H](O)[C@]2(N)[C@H]3O)nc1-c1ccccc1 [DW] | ** (toxicities less than 25 μg/mL are represented by **)
CN(C)[C@@H]1C(O)=C(C(N)=O)C(=O)[C@@]2(C#N)C(O)=C3C(=O)c4c(ccc(Nc5nc(C6C7CC8CC(C7)CC6C8)cs5)c4O)[C@H](O)[C@@]3(N)[C@H](O)[C@@]12N (stereo partly drawn) [DX] | ** (toxicities less than 25 μg/mL are represented by **)
CN(C)[C@@H]1C(O)=C(C(N)=O)C(=O)[C@@]2(C#N)C(O)=C3C(=O)c4c(ccc(-c5ccco5)c4O)[C@H](O)[C@@]3(N)[C@H](O)[C@@]12N [DY] | ** (toxicities less than 25 μg/mL are represented by **)
CN(C)c1cc(-c2ccco2)c(O)c2c1C[C@@]1(N)C[C@@]3(N)[C@H](N(C)C)C(O)=C(C(N)=O)C(=O)[C@@]3(C#N)C(O)=C1C2=O [DZ] | ** (toxicities less than 25 μg/mL are represented by **)
COc1ccc(-c2cc(N(C)C)c3c(c2O)C(=O)C2=C(O)[C@]4(C#N)C(=O)C(C(N)=O)=C(O)[C@@H](N(C)C)[C@]4(N)C[C@]2(N)C3)cc1 [EA] | ** (toxicities less than 25 μg/mL are represented by **)
CN(C)[C@@H]1C(O)=C(C(N)=O)C(=O)[C@@]2(C#N)C(O)=C3C(=O)c4c(ccc(Nc5nc(-c6ccc(F)cc6)cs5)c4O)C[C@@]3(N)C[C@@]12N [EB] | * (toxicities greater than >25 μg/ml are represented by *)
CN(C)[C@@H]1C(O)=C(C(N)=O)C(=O)[C@@]2(C#N)C(O)=C3C(=O)c4c(O)ccc(OC5=CC(c6cccc([N+](=O)O)c6)=CC5)c4C[C@@]3(N)C[C@@]12N [EC] | * (toxicities greater than >25 μg/ml are represented by *)
CN(C)[C@@H]1C(O)=C(C(N)=O)C(=O)[C@@]2(C#N)C(O)=C3C(=O)c4c(ccc(Nc5nc(-c6cccc([N+](=O)O)c6)cs5)c4O)C[C@@]3(N)C[C@@]12N [ED] | ** (toxicities less than 25 μg/mL are represented by **)
COC(=O)c1ccc(-c2ccc(O)c3c2C[C@@]2(N)C[C@@]4(N)[C@H](N(C)C)C(O)=C(C(N)=O)C(=O)[C@@]4(C#N)C(O)=C2C3=O)cc1 [EF] | ** (toxicities less than 25 μg/mL are represented by **)
CN(C)c1cc(-c2cccc([N+](=O)O)c2)c(O)c2c1C[C@@]1(N)C[C@@]3(N)[C@H](N(C)C)C(O)=C(C(N)=O)C(=O)[C@@]3(C#N)C(O)=C1C2=O [EG] | ** (toxicities less than 25 μg/mL are represented by **)
CN(C)c1cc(-c2ccc3c(c2)OCO3)c(O)c2c1C[C@@]1(N)C[C@@]3(N)[C@H](N(C)C)C(O)=C(C(N)=O)C(=O)[C@@]3(C#N)C(O)=C1C2=O [EH] | ** (toxicities less than 25 μg/mL are represented by **)
CN(C)c1ccc(-c2ccc(O)c3c2C[C@@]2(N)C[C@@]4(N)[C@H](N(C)C)C(O)=C(C(N)=O)C(=O)[C@@]4(C#N)C(O)=C2C3=O)cc1 [EM] | ** (toxicities less than 25 μg/mL are represented by **)
CN(C)[C@@H]1C(O)=C(C(N)=O)C(=O)[C@@]2(C#N)C(O)=C3C(=O)c4c(O)ccc(-c5ccc6c(c5)OCO6)c4C[C@@]3(N)C[C@@]12N [EO] | ** (toxicities less than 25 μg/mL are represented by **)
CN(C)[C@@H]1C(O)=C(C(N)=O)C(=O)[C@@]2(C#N)C(O)=C3C(=O)c4c(O)ccc(-c5ccoc5)c4C[C@@]3(N)C[C@@]12N [EP] | ** (toxicities less than 25 μg/mL are represented by **)
CN(C)c1cc(-c2ccc(Cl)cc2)c(O)c2c1C[C@@]1(N)C[C@@]3(N)[C@H](N(C)C)C(O)=C(C(N)=O)C(=O)[C@@]3(C#N)C(O)=C1C2=O [EQ] | ** (toxicities less than 25 μg/mL are represented by **)
CCOc1ccccc1-c1ccc(O)c2c1C[C@@]1(N)C[C@@]3(N)[C@H](N(C)C)C(O)=C(C(N)=O)C(=O)[C@@]3(C#N)C(O)=C1C2=O [ER] | ** (toxicities less than 25 μg/mL are represented by **)
CN(C)c1cc(-c2cccc(O)c2)c(O)c2c1C[C@@]1(N)C[C@@]3(N)[C@H](N(C)C)C(O)=C(C(N)=O)C(=O)[C@@]3(C#N)C(O)=C1C2=O [ES] | ** (toxicities less than 25 μg/mL are represented by **)
CN(C)c1cc(-c2ccc(C(N)=O)cc2)c(O)c2c1C[C@@]1(N)C[C@@]3(N)[C@H](N(C)C)C(O)=C(C(N)=O)C(=O)[C@@]3(C#N)C(O)=C1C2=O [ET] | ** (toxicities less than 25 μg/mL are represented by **)

SMILES | In Vitro Cytotoxicity
CN(C)c1cc(-c2cccc(C(N)=O)c2)c(O)c2c1C[C@@]1(N)C[C@@]3(N)[C@H](N(C)C)C(O)=C(C(N)=O)C(=O)[C@@]3(C#N)C(O)=C1C2=O [EU] | ** (toxicities less than 25 μg/mL are represented by **)
CN(C)c1cc(-c2ccc(Cl)c(Cl)c2)c(O)c2c1C[C@@]1(N)C[C@@]3(N)[C@H](N(C)C)C(O)=C(C(N)=O)C(=O)[C@@]3(C#N)C(O)=C1C2=O [EV] | ** (toxicities less than 25 μg/mL are represented by **)
CN(C)c1cc(-c2ccc(F)cc2F)c(O)c2c1C[C@@]1(N)C[C@@]3(N)[C@H](N(C)C)C(O)=C(C(N)=O)C(=O)[C@@]3(C#N)C(O)=C1C2=O [EX] | ** (toxicities less than 25 μg/mL are represented by **)
CN(C)c1cc(-c2ccc(F)c(F)c2)c(O)c2c1C[C@@]1(N)C[C@@]3(N)[C@H](N(C)C)C(O)=C(C(N)=O)C(=O)[C@@]3(C#N)C(O)=C1C2=O [EY] | ** (toxicities less than 25 μg/mL are represented by **)
CN(C)[C@@H]1C(O)=C(C(N)=O)C(=O)[C@@]2(C#N)C(O)=C3C(=O)c4c(O)cccc4C[C@@]3(N)[C@H](NC(=O)CCN3CCOCC3)[C@@]12N [EZ] | ** (toxicities less than 25 μg/mL are represented by **)
CN(C)[C@@H]1C(O)=C(C(N)=O)C(=O)[C@@]2(C#N)C(O)=C3C(=O)c4c(O)ccc(/C=C/c5ccccn5)c4C[C@@]3(N)C[C@@]12N [FA] | ** (toxicities less than 25 μg/mL are represented by **)
CN(C)[C@@H]1C(O)=C(C(N)=O)C(=O)[C@@]2(C#N)C(O)=C3C(=O)c4c(O)ccc(C#Cc5ccccc5)c4C[C@@]3(N)C[C@@]12N [FB] | ** (toxicities less than 25 μg/mL are represented by **)
CN(C)[C@@H]1C(O)=C(C(N)=O)C(=O)[C@@]2(C#N)C(O)=C3C(=O)c4c(O)ccc(-c5cccc(N)c5)c4C[C@@]3(N)C[C@@]12N [FC] | ** (toxicities less than 25 μg/mL are represented by **)
CN(C)[C@@H]1C(O)=C(C(N)=O)C(=O)[C@@]2(C#N)C(O)=C3C(=O)c4c(O)ccc(C5C=CCC5)c4C[C@@]3(N)C[C@@]12N (stereo partly drawn) [FD] | ** (toxicities less than 25 μg/mL are represented by **)
COc1ccc(C#Cc2cc(N(C)C)c3c(c2O)C(=O)C2=C(O)[C@]4(C#N)C(=O)C(C(N)=O)=C(O)[C@@H](N(C)C)[C@]4(N)C[C@]2(N)C3)cc1 [FE] | ** (toxicities less than 25 μg/mL are represented by **)
CN(C)c1cc(C#Cc2ccc(F)cc2)c(O)c2c1C[C@@]1(N)C[C@@]3(N)[C@H](N(C)C)C(O)=C(C(N)=O)C(=O)[C@@]3(C#N)C(O)=C1C2=O [FF] | ** (toxicities less than 25 μg/mL are represented by **)
CN(C)c1cc(C#Cc2cccc(O)c2)c(O)c2c1C[C@@]1(N)C[C@@]3(N)[C@H](N(C)C)C(O)=C(C(N)=O)C(=O)[C@@]3(C#N)C(O)=C1C2=O [FG] | ** (toxicities less than 25 μg/mL are represented by **)
CC#Cc1cc(N(C)C)c2c(c1O)C(=O)C1=C(O)[C@]3(C#N)C(=O)C(C(N)=O)=C(O)[C@@H](N(C)C)[C@]3(N)C[C@]1(N)C2 [FH] | * (toxicities greater than >25 μg/ml are represented by *)
CN(C)[C@@H]1C(O)=C(C(N)=O)C(=O)[C@@]2(C#N)C(O)=C3C(=O)c4c(O)ccc(C#CC5CCCCC5)c4C[C@@]3(N)C[C@@]12N [FI] | ** (toxicities less than 25 μg/mL are represented by **)
CN(C)CC#Cc1ccc(O)c2c1C[C@@]1(N)C[C@@]3(N)[C@H](N(C)C)C(O)=C(C(N)=O)C(=O)[C@@]3(C#N)C(O)=C1C2=O [FJ] | ** (toxicities less than 25 μg/mL are represented by **)
CN(C)[C@@H]1C(O)=C(C(N)=O)C(=O)[C@@]2(C#N)C(O)=C3C(=O)c4c(O)ccc(C#Cc5c(F)c(F)c(F)c(F)c5F)c4C[C@@]3(N)C[C@@]12N [FK] | ** (toxicities less than 25 μg/mL are represented by **)
Cc1ccc(C#Cc2cc(N(C)C)c3c(c2O)C(=O)C2=C(O)[C@]4(C#N)C(=O)C(C(N)=O)=C(O)[C@@H](N(C)C)[C@]4(N)C[C@]2(N)C3)cc1 [FL] | ** (toxicities less than 25 μg/mL are represented by **)
CN(C)[C@@H]1C(O)=C(C(N)=O)C(=O)[C@@]2(C#N)C(O)=C3C(=O)c4c(O)ccc(-c5cc6ccccc6o5)c4C[C@@]3(N)C[C@@]12N [FM] | * (toxicities greater than >25 μg/ml are represented by *)
CN(C)c1cc(C#CC2(O)CCCCC2)c(O)c2c1C[C@@]1(N)C[C@@]3(N)[C@H](N(C)C)C(O)=C(C(N)=O)C(=O)[C@@]3(C#N)C(O)=C1C2=O [FP] | * (toxicities greater than >25 μg/ml are represented by *)
